{"source": "ChEMBL document CHEMBL1135817", "about": "“New templates for syntheses of ring-fused, C(10) beta-turn peptidomimetics leading to the first reported small-molecule mimic of neurotrophin-3” (2002)", "key": {"[1]": {"biological_target": "NT-3 growth factor receptor (Mus musculus) (UniProt Q6VNS1)", "sequence (Q6VNS1 whole entry)": "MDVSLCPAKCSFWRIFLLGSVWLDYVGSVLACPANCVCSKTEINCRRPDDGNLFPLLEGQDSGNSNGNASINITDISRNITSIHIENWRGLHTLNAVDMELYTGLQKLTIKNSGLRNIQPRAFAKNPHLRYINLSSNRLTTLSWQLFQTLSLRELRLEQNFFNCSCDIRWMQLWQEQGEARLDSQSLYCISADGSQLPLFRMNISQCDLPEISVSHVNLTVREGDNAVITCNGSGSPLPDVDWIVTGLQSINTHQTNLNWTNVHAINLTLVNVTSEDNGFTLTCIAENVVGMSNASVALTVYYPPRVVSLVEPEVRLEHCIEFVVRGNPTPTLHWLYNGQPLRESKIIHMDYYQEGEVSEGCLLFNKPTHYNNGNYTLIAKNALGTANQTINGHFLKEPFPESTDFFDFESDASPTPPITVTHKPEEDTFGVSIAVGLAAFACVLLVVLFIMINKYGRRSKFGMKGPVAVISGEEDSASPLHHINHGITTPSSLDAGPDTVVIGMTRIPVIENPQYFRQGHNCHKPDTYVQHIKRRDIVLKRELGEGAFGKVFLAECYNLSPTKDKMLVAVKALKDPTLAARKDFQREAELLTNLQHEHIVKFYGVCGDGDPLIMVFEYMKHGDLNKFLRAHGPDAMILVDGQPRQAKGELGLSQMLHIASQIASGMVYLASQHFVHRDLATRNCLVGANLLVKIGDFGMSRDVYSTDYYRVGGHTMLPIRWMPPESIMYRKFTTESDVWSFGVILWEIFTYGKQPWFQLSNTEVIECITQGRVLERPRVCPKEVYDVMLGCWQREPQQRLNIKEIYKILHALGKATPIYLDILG", "assay": "Survival of TrkC receptor transfected NIH3T3 cells at 10 uM with 100 pM NT-3", "assay_type": "functional, cell-based"}, "NIH3T3 [2]": {"test_system": "NIH3T3", "assay": "Binding of irrelevant FITC-Ab to NIH3T3 cells (negative control)", "assay_type": "functional, Mus musculus"}, "[3]": {"biological_target": "High affinity nerve growth factor receptor (Homo sapiens) (UniProt P04629)", "sequence (P04629 33-796 limits assumed)": "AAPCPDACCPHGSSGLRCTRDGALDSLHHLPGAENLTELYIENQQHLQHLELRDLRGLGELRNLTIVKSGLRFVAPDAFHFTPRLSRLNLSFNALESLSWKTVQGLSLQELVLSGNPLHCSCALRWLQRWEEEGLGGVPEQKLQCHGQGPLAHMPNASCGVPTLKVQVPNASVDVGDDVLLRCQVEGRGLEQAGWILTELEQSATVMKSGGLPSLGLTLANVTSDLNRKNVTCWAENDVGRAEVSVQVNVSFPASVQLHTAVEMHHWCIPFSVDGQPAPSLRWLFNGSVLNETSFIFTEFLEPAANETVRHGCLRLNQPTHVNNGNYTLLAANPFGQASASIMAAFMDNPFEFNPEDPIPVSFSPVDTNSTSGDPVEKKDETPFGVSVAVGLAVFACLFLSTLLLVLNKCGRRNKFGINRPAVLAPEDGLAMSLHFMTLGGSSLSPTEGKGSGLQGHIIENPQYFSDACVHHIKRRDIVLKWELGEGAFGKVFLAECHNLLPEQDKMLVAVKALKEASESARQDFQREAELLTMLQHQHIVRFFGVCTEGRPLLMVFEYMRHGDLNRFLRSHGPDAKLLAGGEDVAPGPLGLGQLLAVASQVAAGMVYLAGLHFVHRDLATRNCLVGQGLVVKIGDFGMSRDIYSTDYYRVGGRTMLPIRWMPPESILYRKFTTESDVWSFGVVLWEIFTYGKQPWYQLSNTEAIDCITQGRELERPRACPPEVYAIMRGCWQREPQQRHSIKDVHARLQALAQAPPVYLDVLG", "assay": "Binding of FITCanti-TrkA-Ab to human TrkA receptor transfected NIH3T3 cells (positive control)", "assay_type": "cell-based"}, "[4]": {"biological_target": "NT-3 growth factor receptor (Mus musculus) (UniProt Q6VNS1)", "assay": "Survival of TrkC receptor transfected NIH3T3 cells at o.4 uM with 100 pM NT-3", "assay_type": "functional, cell-based"}, "[5]": {"biological_target": "NT-3 growth factor receptor (Mus musculus) (UniProt Q6VNS1)", "assay": "Survival of TrkC receptor transfected NIH3T3 cells with suboptimal NT-3 (100 pM)", "assay_type": "functional, cell-based"}, "[6]": {"biological_target": "NT-3 growth factor receptor (Mus musculus) (UniProt Q6VNS1)", "assay": "Survival of TrkC receptor transfected NIH3T3 cells at 2 uM with 100 pM NT-3", "assay_type": "functional, cell-based"}, "[7]": {"biological_target": "NT-3 growth factor receptor (Mus musculus) (UniProt Q6VNS1)", "assay": "Binding of FITCanti-TrkC-Ab to TrkC receptor transfected NIH3T3 cells (positive control)", "assay_type": "cell-based"}, "[8]": {"biological_target": "NT-3 growth factor receptor (Mus musculus) (UniProt Q6VNS1)", "assay": "Survival of TrkC receptor transfected NIH3T3 cells without NT-3 (negative control)", "assay_type": "functional, cell-based"}, "[9]": {"biological_target": "NT-3 growth factor receptor (Mus musculus) (UniProt Q6VNS1)", "assay": "Survival of TrkC receptor transfected NIH3T3 cells at o.4 uM without NT-3", "assay_type": "functional, cell-based"}, "[10]": {"biological_target": "NT-3 growth factor receptor (Mus musculus) (UniProt Q6VNS1)", "assay": "Survival of TrkC receptor transfected NIH3T3 cells at 10 uM without NT-3", "assay_type": "functional, cell-based"}, "[11]": {"biological_target": "NT-3 growth factor receptor (Mus musculus) (UniProt Q6VNS1)", "assay": "Survival of TrkC receptor transfected NIH3T3 cells with 2000 pM NT-3 (positive control)", "assay_type": "functional, cell-based"}, "[12]": {"biological_target": "NT-3 growth factor receptor (Mus musculus) (UniProt Q6VNS1)", "assay": "Survival of TrkC receptor transfected NIH3T3 cells at 50 uM with 100 pM NT-3", "assay_type": "functional, cell-based"}, "[13]": {"biological_target": "NT-3 growth factor receptor (Mus musculus) (UniProt Q6VNS1)", "assay": "Survival of TrkC receptor transfected NIH3T3 cells at 2 uM without NT-3", "assay_type": "functional, cell-based"}, "[14]": {"biological_target": "NT-3 growth factor receptor (Mus musculus) (UniProt Q6VNS1)", "assay": "Survival of TrkC receptor transfected NIH3T3 cells at 50 uM without NT-3", "assay_type": "functional, cell-based"}, "[15]": {"biological_target": "High affinity nerve growth factor receptor (Homo sapiens) (UniProt P04629)", "assay": "Binding affinity for TrkA receptor transfected NIH3T3 cells at 20 uM with 2 nM NGF", "assay_type": "cell-based"}, "[16]": {"biological_target": "NT-3 growth factor receptor (Mus musculus) (UniProt Q6VNS1)", "assay": "Binding affinity for TrkC receptor transfected cells at 20 uM without NT-3"}, "NIH3T3 [17]": {"test_system": "NIH3T3", "assay": "Binding affinity for NIH3T3 cells at 20 uM (negative control)", "assay_type": "functional, Mus musculus"}, "[18]": {"biological_target": "High affinity nerve growth factor receptor (Homo sapiens) (UniProt P04629)", "assay": "Binding affinity for TrkA receptor transfected NIH3T3 cells at 20 uM without NGF", "assay_type": "cell-based"}, "[19]": {"biological_target": "NT-3 growth factor receptor (Mus musculus) (UniProt Q6VNS1)", "assay": "Binding affinity for TrkC receptor transfected cells at 20 uM with 2 nM NT-3"}, "[20]": {"biological_target": "NT-3 growth factor receptor (Mus musculus) (UniProt Q6VNS1)", "assay": "Binding affinity for TrkC receptor transfected cells at 20 uM with 20 nM anti-TrkC-Ab"}}, "data": [{"compound": "NCCCC[C@@H]1NC(=O)c2cc([N+](=O)[O-])ccc2NCc2ccc(C(N)=O)cc2NC(=O)[C@H](CO)NC1=O", "values": [{"measurement": "Survival", "setting": "[1]", "result": 38, "unit": "%"}, {"measurement": "Max binding", "setting": "NIH3T3 [2]", "result": 14, "unit": "%"}, {"measurement": "Max binding", "setting": "[3]", "result": 71, "unit": "%"}, {"measurement": "Survival", "setting": "[4]", "result": 32, "unit": "%"}, {"measurement": "Survival", "setting": "[5]", "result": 26, "unit": "%"}, {"measurement": "Survival", "setting": "[6]", "result": 33, "unit": "%"}, {"measurement": "Max binding", "setting": "[7]", "result": 22, "unit": "%"}, {"measurement": "Survival", "setting": "[8]", "result": 0, "unit": "%"}, {"measurement": "Survival", "setting": "[9]", "result": 0.2, "unit": "%"}, {"measurement": "Survival", "setting": "[10]", "result": 0.4, "unit": "%"}, {"measurement": "Survival", "setting": "[11]", "result": 100, "unit": "%"}, {"measurement": "Survival", "setting": "[12]", "result": 36, "unit": "%"}, {"measurement": "Survival", "setting": "[13]", "result": 0.1, "unit": "%"}, {"measurement": "Survival", "setting": "[14]", "result": 0.2, "unit": "%"}]}, {"compound": "NCCCC[C@@H]1NC(=O)c2cc(NC(=O)CC/N=C(S)/N=C3/C=CC(=C4c5ccc(O)cc5Oc5cc(O)ccc54)C(C(=O)O)=C3)ccc2NCc2ccc(C(N)=O)cc2NC(=O)[C@H](CO)NC1=O", "values": [{"measurement": "Max binding", "setting": "[15]", "result": 9, "unit": "%"}, {"measurement": "Max binding", "setting": "[16]", "result": 11, "unit": "%"}, {"measurement": "Max binding", "setting": "NIH3T3 [17]", "result": 14, "unit": "%"}, {"measurement": "Max binding", "setting": "[18]", "result": 22, "unit": "%"}, {"measurement": "Max binding", "setting": "[19]", "result": 42, "unit": "%"}, {"measurement": "Max binding", "setting": "[20]", "result": 40, "unit": "%"}]}]}
